In patent US7091185B2, “Periodic antimicrobial peptides” (Dow Global Technologies Inc., priority 2003, dated 2006):
Like-named read-outs stand apart in the source and are kept apart here. Where no end group is shown, it is not given here.

How the values were obtained:
[1] = system: E. coli ATCC 2592; details: ATCC 2592
[2] = system: P. aeruginosa ATCC 10145; details: ATCC 10145
[3] = system: S. aureus (methicillin resistant) ATCC 33591
[4] = system: C. albicans 10231; format: cell-based; details: 10231
Outline: (§1)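 Broth microdilution per NCCLS, adapted for fungi with Sabouraud Dextrose Broth; KFAK-repeat peptide multimers in two-fold dilutions from 1,000 to 1 μg/ml. Growth by OD620 after overnight incubation; IC50 by sigmoidal fit, in duplicate, repeated at least twice.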

[5] = system: Cr. Neoformans 32045; format: cell-based
Outline: as §1

[6] = Red blood cell toxicity; format: cell-based; details: red blood cells (RBC); RBCs; concentration required for 50% toxicity; read-out: TX50
[7] = system: Red blood cells (RBC); experiment: Red blood cell toxicity; format: cell-based
[8] = system: HeLa cell line; experiment: HeLa MTS cellular reduction toxicity assay; format: cell-based; details: for TX50: 24 h, MTS
Outline: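 HeLa cells grown 48 h, then exposed to serial 2-fold peptide dilutions for 24 h at 37 °C, 5% CO2. MTS-PMS added for 1 h; absorbance at 490 nm compared with untreated cells. TX50 (50% toxicity concentration) from sigmoidal curve fit.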

[9] = system: herpes simplex virus (HSV); details: mixed with a modified lipid octyl-glycerol; compared with magainins and defensins; cited from earlier work
[10] = system: T. vaginalis; details: background statement; cited from earlier work
[11] = system: C. trachomatis; details: background statement; cited from earlier work
[12] = system: P. aeruginosa; details: background statement; cited from earlier work
[13] = system: rat prostate adenocarcinoma; details: rat prostate adenocarcinoma model, cited from earlier work
[14] = system: P. aeruginosa ATCC 15442; experiment: HMARQ biocidal kill activity; format: cell-based; details: P. aeruginosa ATCC 15442 (gram−)
Outline: (§2)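 Inoculated sample matrix (200–300 μL) added to biocide in 96-well blocks alongside untreated controls; for kill-time runs organisms added after biocide. Viable counts by MPN serial 1:10 dilution in TSB with 50 μM resazurin indicator; values are ppm (μg/mL) giving 3.5 log kill versus untreated at 15 min or 24 h.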

[15] = system: Staph. aureus ATCC 6538; experiment: HMARQ biocidal kill activity; format: cell-based; details: Staph. aureus ATCC 6538 (gram+)
Outline: as §2

[16] = system: P. aeruginosa ATCC 15442 / Staph. aureus ATCC 6538; experiment: HMARQ biocidal testing; format: cell-based; details: summary of Table 6; peptides too small to span the membrane
Experimental: Biocide efficacy protocols were improved by reducing sample size, organizing the test material into an array format, implementing most probable number (MPN) quantitation and using multi-channel liquid handling equipment. We call the new method “high-throughput microanalysis and rapid quantitation” or “HMARQ.” HMARQ is directly applicable to current industrial efficacy tests such as multi-cycle preservation challenge or time course disinfection tests.
HMARQ is performed in a high throughput plate, such as 96-well microtiter plates. Typical sample volumes have been reduced down to 200 to 300 μL, but can be reduced further if desired. In these samples, no more than 10% of the total volume will be composed of the biocide and organism solution, and all non-matrix additions are normalized for all samples.
The sample matrix is first inoculated with the desired concentration of microorganisms. Inoculated sample matrix is then added to the 96-well assay block containing the biocide(s) under study. Each sample block contains biocide treated samples and untreated control samples (lacking biocide). Once the samples are prepared, the entire block of samples is mixed by vortexing until each sample is homogenous. In general, the study starts once mixing is complete, and samples are removed as required for the analysis. When Kill Time testing (rate of biocide activity) is performed, the microorganisms are added after biocide addition to the samples, allowing for rapid mixing and analysis.
Bacterial concentration (CFU/mL) is determined using the most probable number method (MPN). […] A serial 1:10 dilution will yield a bacterial concentration resolution of 1 log and the log reduction is determined by comparing the concentration of organisms in a treated sample to the concentration of organisms in untreated samples. […]
Using the HMARQ test described above, periodic peptides were generated and tested for Kill Activity. […] Units are expressed as ppm (μg/mL) needed for 3.5 log kill at 15 min or 24 hour and the results are shown below.

[17] = system: Staph. aureus ATCC 6538; experiment: HMARQ biocidal kill activity; format: cell-based; details: Staph. aureus ATCC 6538, 15 min, 3 log kill
[18] = system: P. aeruginosa ATCC 15442; experiment: HMARQ biocidal kill activity; format: cell-based; details: P. aeruginosa ATCC 15442, 15 min, 3 log kill
[19] = S. aureus (methicillin resistant) 33591, gram+

Row | Substance | IC50 [1] [µg/mL] | MIC [1] [µg/mL] | IC50 [2] [µg/mL] | IC50 ([3]; ATCC 33591) [µg/mL] | MIC ([3]; ATCC 33591) [µg/mL] | IC50 [4] [µg/mL] | MIC [4] [µg/mL] | IC50 [5] [µg/mL] | MIC [5] [µg/mL] | HC50 at 24 h [6] [µg/mL] | % kill at 250 μg/ml ([7]; RBCs, 250 μg/ml) [%] | % kill at 500 μg/ml [8] [%] | TX50 [8] [µg/mL] | ppm needed for 3.5 log kill at 15 min [14] [ppm] | ppm needed for 3.5 log kill at 24 hr [14] [ppm] | ppm needed for 3.5 log kill at 15 min [15] [ppm] | ppm needed for 3.5 log kill at 24 hr [15] [ppm] | biocidal activity (statement) [16] | MIC [2] [µg/mL] | ppm at 15 min, cell marked (3 log) [18] | also measured
1 | FAKKFAKKFKKFAKKFAKFAFAF [D2A21, reference compound] | 4.5 | 8 to 16 | 11.3 | 11.9 | 62 to 125 | 121.5 | >250 | 21.9 | 62 to 125 | 52 | 93.1 | 7.1 | 16.9 | – | – | – | – | – | – | – | activity against HSV compared with other peptides [9]: better than five other peptides; activity (statement) [10]: has activity against; activity (statement) [11]: has activity against; activity (statement) [12]: has activity against; survival rate ([13]; improved from 25%, preliminary results (Arlotti 2001)): 75%; toxicities [13]: not causing any significant toxicities
2 | FKA FKA FKA FKA (FKAFKAFKAFKA; Periodic Peptide) [FKA(4)] | – | – | – | – | – | – | – | – | – | – | – | – | – | >500 | 125 | 4 | 250 | demonstrate biocidal activity | – | – | –
3 | KFAK KFAK KFAK KFAK KFAK KFAK KFAK KFAK KFAK KFAK KFAK KFAK (KFAKKFAKKFAKKFAKKFAKKFAKKFAKKFAKKFAKKFAKKFAKKFAK; Periodic Peptide) [KFAK(12)] | – | – | – | – | – | – | – | – | – | – | – | – | – | 16 | 31 | – | >500 | – | – | – | ppm at 15 min, cell marked (3 log) [17]: 31(3 log) ppm
4 | LK LK (LKLK; Periodic Peptide) [LK(2)] | – | – | – | – | – | – | – | – | – | – | – | – | – | >500 | 250 | >500 | 16 | demonstrate biocidal activity | – | – | –
5 | LKLKLKLKLKLKLKLKLKLKLKLK [LK (12), LK LK LK LK LK LK LK LK LK LK LK LK] | 23 | 62 to 125 | 41 | 85 | >250 | 175 | 250 to 500 | 22 | 32 to 62 | > 500 | – | 60.0 | 49 | – | 4 | 4 | 8 | – | 45 | 16 (3 log) ppm | % kill at 250 μg/ml [7]: 35%
6 | LRLRLRLRLRLRLRLRLR [LR (9), LR LR LR LR LR LR LR LR LR] | 70 | >125 | >250 | – | – | 195 | 250 to 500 | 21 | 62 to 125 | > 500 | 24 | 96.7 | >500 | – | 4 | 16 | 8 | – | >250 | 31(3 log) ppm | IC50 [3, 19]: 28 µg/mL; MIC [3, 19]: 125 to 250 µg/mL
